Source: article PMC9332833 (Cancers, 2022)
pIC50: −log10 of the molar value.

Columns and labels:
[1] = Body and organ weights in K562 xenograft mice; details: for Brain weight / Heart weight / Kidneys weight / Liver weight / Lung weight / Splean weight: mean ± SD, N=4
Procedure: Eight-week-old female NOD.Cg-Prkdcscid Il2rgtm1Wjl/SzJ NSG mice (Jackson Laboratory, Bar Harbor, ME, USA) were injected subcutaneously into the dorsal fold with 1 × 10^6 K562 cells of the human chronic myeloid leukemia (CML) line in a final volume of 100 µL (0.5% of the mouse weight). On day 3 after cell administration, mice were randomly assigned to each group, and on days 4–17 of the experiment, the selected tested compounds and control solutions were administered intraperitoneally or orally. During the experiment, subcutaneous tumors and body weight were measured daily. Tumor growth during the experiment was measured with an electronic display caliper. The theoretical tumor volume [mm], was calculated according to the formula (a^2 × b) * 0.5, where a is the shorter tumor axis [mm] and b is the longer tumor axis [mm]. On day 26, the experiment was terminated: blood was collected and analyzed for cellular morphology and standard biochemistry metabolites. Tumors were weighed.
Control and treated mice were grouped according to the tested compounds and the scheme of their administrations (doses, administration frequencies, routes of administration) in the CML xenogeneic model obtained by subcutaneous transplantation of 1 × 10^6 cells of the human CML blast line K562 into mice NOD.Cg-Prkdcscid Il2rgtm1Wjl/SzJ (NSG).
Hydroxyurea K562 500 mg/kg, IP Aqua pro 1 x daily 8

K562 cells [2] = test: MTT viability test, K562; type: cell-based; details: Homo sapiens, K562; MTT, 48 h
Procedure: CML cell line K562 CCL-243™ (BCR-ABL^+) was purchased from the ATCC® (Manassas, VA, USA). Cells were grown in RPMI 1640 medium containing HEPES (Biowest, Nuaillé, France) with 2 mM GlutaMAX (Gibco, Grand Island, NY, USA), supplemented with 10% fetal bovine serum (Sigma-Aldrich, St. Louis, MO, USA) and […] (Gibco, Grand Island, NY, USA) and 0.1 µM Vincristine (for K562-MDR1).
(§1) Cells were seeded in 96-well plates; after 24 h, medium with the appropriate drug concentration was added to each well. After 48 h, Tetrazolium Bromide (Sigma-Aldrich, St. Louis, MO, USA) was added to each well for 2–3 h. After that, cells were lysed and formazan crystals were dissolved. Absorbance was read using an iMark Microplate absorbance reader (Bio-Rad, Hercules, CA, USA). Results were calculated relative to cells treated with DMSO only. […]
(§2) Cells were seeded in 96-well plates at 7 × 10^3 cells/well in 50 µL of complete medium (for K562 or K562-MDR1) or at 50 × 10^3 cells/well in 50 µL of complete medium (CD34+ cells). After 24 hours, 50 µL of medium with the appropriate drug concentration was added to each well. The final DMSO concentration per well was 1% for K562 and K562-MDR1 and 0.1% for CD34+ cells. After 48 hours, 20 µL of Tetrazolium Bromide (Sigma-Aldrich, St. Louis, MO, USA) at a concentration of 5 mg/mL was added to each well. Cells were incubated for 2-3 hours in a cell culture incubator, and then 10% SDS with 1% HCl was added to each well to lyse the cells and dissolve the formazan crystals. Plates were […]

K562 cells [3] = test: K562 cell cycle analysis; type: cell-based, human; details: 5 µM, after 24 h; lesser extent after 48 h
Procedure: BK124.1 or DMSO was added to cells and after 24 or 48 h incubation. Cells were fixed and stained with 50 µg/mL propidium iodide (Sigma-Aldrich, St. Louis, MO, USA) with 50 µg/mL DNAse-free RNase. The cell cycle was analyzed on a FACSCalibur cytometer (Becton Dickinson, Franklin Lakes, NJ, USA) using ModFit LT 3.2 software (Verity Software House, Topsham, ME, USA). […]
incubated overnight at 37 °C and analyzed using an iMark Microp late absorbance reader (Bio-Rad, Hercules, CA, USA). Results were calculated relative to control cells treated with DMSO only.
[…] CD34+ cells were plated at a concentration of 2.5 × 10^5 cells/mL in a 24-well plate. […] A f t e r a further 24 hours, cells were harvested and stained according to the manufacturer's protocol using the Annexin V-FITC kit for the detection of apoptosis (BD, Franklin Lakes, NJ, USA). Stained cells were immediately analyzed on a BD FACSCalibur using CellQuest softwa re (BD, Franklin Lakes, NJ, USA).
Cells were seeded at a concentration of 1-2 × 10^5 cells/mL in a 6-well plate. After 24 hours of pre-incubation, BK124.1 in DMSO was added to the cells (vDMSO/vmedium), and incubated for 24 or 48 hours.
After incubation, cells were washed twice with ice-cold PBS (Mg2+ and Ca2+-free), resuspended in ice-cold 70% ethanol, and placed at -20 °C for 24 hours. […]
Flow cytometry analysis of CD243 (P-glycoprotein) […]

[4] = Solubility in selected solvents; type: physicochemical
From the text: Supplementary Information
Table S1. Solubility of BK124.1 in selected solvents. In bold are marked solvents in which BK124.1 is soluble and stable, adequate for the administration in vivo.
Solvent Formulation Comments
Water 0.9% NaCl insoluble
10% ethanol in 0.9% NaCl insoluble
Cyclodextrin ɑ-cyclodextrin in water insoluble
β-cyclodextrin in water insoluble
γ-cyclodextrin in water insoluble […]
DMSO < 100% in water insoluble
Surfactant 20% Solutol HS 15 in 0.9% NaCl insoluble
20% Solutol HS 15 in PBS insoluble
20% Solutol HS 15, 10% ethanol in water 0.9% NaCl soluble/stable
10% Solutol HS 15, 10% ethanol in water 0.9% NaCl soluble/stable

K562-MDR1 cells = test: MTT viability test, K562-MDR1; type: cell-based, human; details: Homo sapiens; MTT, 48 h
From the text: The K562-MDR1 cell line was developed using increasing concentrations of the commonly used antimitotic drug vincristine on a polyclonal K562 population, as described earlier. […] The DMSO concentration in the culture was 0.1%. The vincristine dose was doubled every 2–3 weeks (at least twice for each experiment) after the cells reached confluence. Cell’s viability was above 90%, as confirmed by Muse Cell Analyzer (Merck Millipore, Burlington, MA, USA). The final concentration of vincristine reached was 0.1 μM. The increase in the K562-MDR1 population was confirmed by flow cytometry and PCR.
as §1, §2

CCC12C(=O)C(CC)(C(c3ccccc3)=C1c1ccccc1)C1C(=O)N(CC(O)CNC(C)C)C(=O)C12 (stereo not shown) [BK124.1, 4-[2-hydroxy-3-(propan-2-ylamino)propyl]-1,7-diethyl-8,9-diphenyl-4-azatricyclo [5.2.1.02,6]dec-8-ene-3,5,10-trione]
Brain weight ([1]; 20 mg/kg IP daily 14 days): 0.47 ± 0.02 g
Heart weight ([1]; 20 mg/kg IP daily 14 days): 0.10 ± 0.00 g
Kidneys weight ([1]; 20 mg/kg IP daily 14 days): 0.26 ± 0.03 g
Liver weight ([1]; 20 mg/kg IP daily 14 days): 1.09 ± 0.10 g
Lung weight ([1]; 20 mg/kg IP daily 14 days): 0.24 ± 0.10 g
Splean weight ([1]; 20 mg/kg IP daily 14 days): 0.03 ± 0.02 g
Brain weight ([1]; 30 mg/kg IP daily 14 days): 0.47 ± 0.01 g
Heart weight ([1]; 30 mg/kg IP daily 14 days): 0.10 ± 0.02 g
Kidneys weight ([1]; 30 mg/kg IP daily 14 days): 0.28 ± 0.02 g
Liver weight ([1]; 30 mg/kg IP daily 14 days): 1.27 ± 0.11 g
Lung weight ([1]; 30 mg/kg IP daily 14 days): 0.34 ± 0.02 g
Splean weight ([1]; 30 mg/kg IP daily 14 days): 0.03 ± 0.01 g
Morphology or weight of internal organs (liver, spleen, kidneys, lungs, heart) versus untreated controls ([1]; doses as in Table S3): no changes
Total body weight course ([1]; doses as in Table S3, control mice gained mass in the last 5 days): No such increase occurred
pIC50 (K562 cells [2]): 5.60
Cell cycle effect (K562 cells [3]): profound G2/M arrest
Solubility ([4]; 0.9% NaCl): insoluble
Solubility ([4]; 10% Solutol HS 15, 10% ethanol in water 0.9% NaCl): soluble/stable
Solubility ([4]; 10% ethanol in 0.9% NaCl): insoluble
Solubility ([4]; 20% Solutol HS 15, 10% ethanol in water 0.9% NaCl): soluble/stable
Solubility ([4]; 20% Solutol HS 15 in 0.9% NaCl): insoluble
Solubility ([4]; 20% Solutol HS 15 in PBS): insoluble
Solubility ([4]; DMSO 100%): soluble/stable
Solubility ([4]; DMSO < 100% in water): insoluble
Solubility ([4]; ɑ-cyclodextrin in water): insoluble
Solubility ([4]; β-cyclodextrin in water): insoluble
Solubility ([4]; γ-cyclodextrin in water): insoluble
pIC50 (K562-MDR1 cells): 5.67
